In patent publication US8580842B2, “Heteroaryl-substituted 1,3-dihydroindol-2-one derivatives and medicaments containing them” (Abbott GmbH & Co. KG, priority 2003, dated 2013) one finds Ki data, which are given here for nine compounds.

pKi: −log10 of the molar value. Where a name gives a salt, the structure may show the parent alone.

In this assay the target is T1, human V1b receptors (Homo sapiens, UniProt P47901).
T1 construct: expressed in transfected cells; host or cells: CHO-K1 (membrane preparation V1b-3H2)
T1 sequence (P47901 1-424): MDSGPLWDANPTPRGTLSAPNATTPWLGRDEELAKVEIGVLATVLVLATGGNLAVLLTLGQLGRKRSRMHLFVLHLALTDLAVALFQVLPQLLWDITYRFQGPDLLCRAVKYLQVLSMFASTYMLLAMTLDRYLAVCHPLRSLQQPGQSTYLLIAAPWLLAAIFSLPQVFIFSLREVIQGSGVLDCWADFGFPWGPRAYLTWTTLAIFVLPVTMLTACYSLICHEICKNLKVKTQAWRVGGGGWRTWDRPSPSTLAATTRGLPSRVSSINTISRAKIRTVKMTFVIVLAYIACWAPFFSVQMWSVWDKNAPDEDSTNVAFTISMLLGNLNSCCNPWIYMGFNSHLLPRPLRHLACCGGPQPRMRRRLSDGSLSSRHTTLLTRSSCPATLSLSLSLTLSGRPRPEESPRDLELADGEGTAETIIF
The assay is described as follows: Vasopressin V1b receptor binding assay. The settings on record: membranes from CHO-K1 cells expressing human V1b receptors, displacement of 1.5 nM 3H-AVP; read-out: Binding affinity for the vasopressin V1b receptor. As to the method: Vasopressin V1b Receptor Binding Assay
The binding of the compounds of this invention to the vasopressin V1b receptor was determined with the following assay:
Compounds were dissolved in a concentration of 10^−2 M or 10^−3 M in DMSO. Further dilutions were performed with water.
The procedure for the binding assay was based on the method of Tahara et al. (Tahara A et al., Brit. J. Pharmacol. 125, 1463-1470 (1998)). Assays (0.250 ml) consisted of membranes (58 μg protein) from CHO-K1 cells permanently expressing human V1b receptors (preparation V1b-3H2, containing protease inhibitors, Roche complete Mini #1836170), 1.5 nM ^3H-AVP (8-Arg-vasopressin, NET 800) in incubation buffer (total binding) and different concentrations of test compound (displacement). Non-specific binding was defined with 10^−6 M AVP. Assays were performed in triplicate.
Incubation buffer: 50 mM Tris, 10 mM MgCl2, 0.1% BSA adjusted to pH 7.4 with HCl.
After incubation, 60 min at room temperature, bound and free radioligand was separated by filtration under vacuum through Whatman GF/B glass fibre mats using a Skatron cell harvester 7000.
Liquid scintillation counting was performed in beta-counters, Tricarb model 2000 or 2200CA (Packard). Dpm were calculated by a programme with standardisation using a standard quench series.
Evaluation of binding parameters was performed by non-linear regression analysis with SAS. The strategy of this program is similar to the program LIGAND described by Munson and Rodbard (Munson PJ and Rodbard D, Analytical Biochem 107, 220-239 (1980)).

As for `COc1ncccc1C1(OC(=O)N2CCN(C3CCN(C)CC3)CC2)C(=O)N(S(=O)(=O)c2ccc(C(F)(F)F)cc2)c2ccc(Cl)cc21` (stereo not drawn) [Example 122, 4-(1-Methyl-piperidin-4-yl)-piperazine-1-carboxylic acid 5-chloro-3-(2-methoxy-pyridin-3-yl)-2-oxo-1-(4-trifluoromethyl-benzenesulfonyl)-2,3-dihydro-1H-indol-3-yl ester diacetate], the pKi was 6.30 to 7.30. As for `COc1ncccc1C1(OC(=O)N2CCN(C3CCN(C)CC3)CC2)C(=O)N(S(=O)(=O)c2ccc(OC(F)(F)F)cc2)c2ccc(Cl)cc21` (stereo not drawn) [Example 123, 4-(1-Methyl-piperidin-4-yl)-piperazine-1-carboxylic acid 5-chloro-3-(2-methoxy-pyridin-3-yl)-2-oxo-1-(4-trifluoromethoxy-benzenesulfonyl)-2,3-dihydro-1H-indol-3-yl ester diacetate], the figure is 6.30 to 7.30; as for `CCOc1ccccc1C1(NC(=O)N2CCN(C3CCN(C)CC3)CC2)C(=O)N(S(=O)(=O)c2sccc2OC)c2ccc(OC)cc21` (stereo not drawn) [Example 125, 4-(1-Methyl-piperidin-4-yl)-piperazine-1-carboxylic acid [3-(2-ethoxy-phenyl)-5-methoxy-1-(3-methoxy-thiophene-2-sulfonyl)-2-oxo-2,3-dihydro-1H-indol-3-yl]-amide], more than 7.30. As for `COc1ccc2c(c1)C(OC(=O)N1CCN(C3CCN(C)CC3)CC1)(c1ccccc1OC)C(=O)N2S(=O)(=O)c1cccs1` (stereo not drawn) [Example 126, 4-(1-Methyl-piperidin-4-yl)-piperazine-1-carboxylic acid 5-methoxy-3-(2-methoxy-phenyl)-2-oxo-1-(thiophene-2-sulfonyl)-2,3-dihydro-1H-indol-3-yl ester dihydrochloride], the figure is more than 7.30; as for `COc1ccccc1C1(OC(=O)N2CCN(C3CCN(C)CC3)CC2)C(=O)N(S(=O)(=O)c2ccccn2)c2ccc(C)cc21` (stereo not drawn) [Example 127, 4-(1-Methyl-piperidin-4-yl)-piperazine-1-carboxylic acid 3-(2-methoxy-phenyl)-5-methyl-2-oxo-1-(pyridine-2-sulfonyl)-2,3-dihydro-1H-indol-3-yl ester dihydrochloride], more than 7.30; as for `COc1ccccc1C1(OC(=O)N2CCC(N3CCN(C)CC3)CC2)C(=O)N(S(=O)(=O)c2cccs2)c2ccc(C)cc21` (stereo not drawn) [Example 130, 4-(4-Methyl-piperazin-1-yl)-piperidine-1-carboxylic acid 3-(2-methoxy-phenyl)-5-methyl-2-oxo-1-(thiophene-2-sulfonyl)-2,3-dihydro-1H-indol-3-yl ester dihydrochloride], more than 7.30. With `Cc1ccccc1C1(OC(=O)N2CCN(C3CCN(C)CC3)CC2)C(=O)N(S(=O)(=O)c2ccccn2)c2ccc(C#N)cc21` (stereo not drawn) [Example 134, 4-(1-Methyl-piperidin-4-yl)-piperazine-1-carboxylic acid 5-cyano-2-oxo-1-(pyridine-2-sulfonyl)-3-o-tolyl-2,3-dihydro-1H-indol-3-yl ester dihydrochloride] the figure was more than 7.30. As for `COc1ccccc1C1(OC(=O)N2CCN(C3CCN(C)CC3)CC2)C(=O)N(S(=O)(=O)c2cccs2)c2ccc(F)cc21` (stereo not drawn) [Example 136, 4-(1-Methyl-piperidin-4-yl)-piperazine-1-carboxylic acid 5-fluoro-3-(2-methoxy-phenyl)-2-oxo-1-(thiophene-2-sulfonyl)-2,3-dihydro-1H-indol-3-yl ester], the pKi was more than 7.30. Consider `CCOc1ccccc1C1(OC(=O)N2CCN(C3CCN(C)CC3)CC2)C(=O)N(S(=O)(=O)c2sccc2OC)c2ccc(Cl)cc21` (stereo not drawn) [Example 143, 4-(1-Methyl-piperidin-4-yl)-piperazine-1-carboxylic acid 5-chloro-3-(2-ethoxy-phenyl)-1-(3-methoxy-thiophene-2-sulfonyl)-2-oxo-2,3-dihydro-1H-indol-3-yl ester], for which the pKi was more than 7.30.
